Results from US9062037B2, “Tazarotene derivatives” (Stiefel Laboratories, Inc., priority 2009, dated 2015).
Like-named read-outs stand apart in the source and are kept apart here.

How the values were obtained:
[1] = in vitro; settings: human, liver microsomes, pH 7.4, Half-life, HLM
Experimental: (§2) Hepatic microsomal reactions were carried out in microcentrifuge tubes in the following manner. Human liver microsomes (0.5 or 1.0 mg/ml protein), Test Article (1 or 10 μM), paraoxon (0, 10 or 100 μM), NADPH regenerating system (10 mM glucose-6-phosphate, 1 unit/ml glucose-6-phosphate dehydrogenase, 1 mM NADP^+), magnesium chloride (5 mM) in 0.1 M potassium phosphate buffer, pH 7.4 were incubated at 37° C. in a shaking water bath. Reactions were initiated with the addition of substrate with the exception of the zero-time incubations. The total reaction volume was 0.2 ml. The reactions were incubated for 15, 30, 45 or 60 minutes, terminated with 0.2 ml ice-cold acetonitrile and then placed on ice. For zero-time incubations, ice cold acetonitrile was added to the mixture containing microsomes, along with NADPH regenerating system, magnesium chloride in phosphate buffer and the Test Article. Each time point was carried out in triplicate.
Disappearance of Test Article and formation of metabolites following in vitro metabolism were determined by LC-MS/MS using multiple reaction monitoring. LightSight® software (Applied Biosystems, Foster City, Calif.) was used to generate the mass spectrometry methods and carry out the data mining.
Control incubations were carried out with the identical incubation procedures as described above with the following exceptions. In negative control reactions, microsomes were not included. […] Duplicate reactions with an initial concentration of 10 μM were incubated for 0 or 30 minutes. Microsomal metabolic stability of 7-ethoxycoumarin was determined by LC-MS/MS.

[2] = tested on: Reconstructed human epidermis (RHE) tissues; test: RT-qPCR gene expression of K10, K19, filaggrin, K4 and K13 in reconstructed human epidermis (RHE) cultures; type: cell-based; settings: 72 h, 2.83 mM in OD/10% DMSO, 6 μl
Experimental: Reconstructed human epidermis (RHE) tissues were cultured in-house as previously described by Poumay et al. Briefly, polycarbonate culture inserts (12 mm diameter and 0.4 μm pore size, Millipore) were filled with 150 μL of a suspension containing approximately 5×10^5 primary adult human keratinocytes. The inserts received another 500 μL of keratinocyte culture media and were placed in a 6-well plate (1 insert/well) containing 2.5 mL of RHE Growth Media (Epilife media +1.5 mM CaCl2). RHE cultures were incubated at 37° C. in a humidified atmosphere containing 5% CO2, for 24 hours. Subsequently (on Day 0), RHE cultures were exposed to the air-liquid interface by removing the RHE Growth Media from the top of the cultures, and replacing with 1.5 mL/well of RHE Growth Media containing 50 μg/mL vitamin C. Media was changed every other day until the cultures were dosed with Test Articles. A stock solution of 0.1% tazarotene (2.83 mM at 99.5% purity) in OD/10% DMSO was prepared. For tazarotene benzoate, hydroxytazarotenic acid, keto tazarotenic acid, keto tazarotene, and tazarotene nicotinate, a 10 mg/mL stock solution (in DMSO) was already prepared. From this stock solution, a 2.83 mM working solution (in octyldodecanol) was prepared. All other tested compounds were resuspended in DMSO and OD to obtain a final concentration of 2.83 mM in OD/10% DMSO. On Day 12, the cultures were placed in 60 mm petri dishes containing 3 mL of RHE Growth Media (+VitC). Test articles (6 μl) were applied to triplicate cultures and cultures were incubated at 37° C. for 72 hours. Untreated and OD alone served as negative controls. At the end of the incubation period, the growth media was collected and stored at −20° C. The tissues were cut in half: one half was placed in 10% NBF for histology, and the other half was placed in RNAlater™ solution for RT-qPCR. RNA was isolated and concentrations were determined using a NanoDrop spectrophotometer. In addition to using the same amount of RNA for each sample, data was normalized to internal GAPDH mRNA levels and is expressed as relative quantification (RQ) to untreated controls. RNA extracts from each replicate were amplified using RT-qPCR. The relative gene expression of five biomarkers was determined: Keratin 10, Keratin 19, Filaggrin, Keratin 4, and Keratin 13.

[3] = Reaction with benzoyl peroxide (BPO) in solution; type: physicochemical; settings: at all three temperatures (35° C., room temperature, 5° C.); BPO 50-fold excess by weight
Experimental: The reaction of (i) tazarotene, tazarotene benzoate, hydroxy tazarotenic acid and tazarotene nicotinate with (ii) benzoyl peroxide (BPO) in 30% aqueous solutions was monitored at 35° C., room temperature and 5° C.
Individual solutions of each compound were prepared at approximately 0.25 mg/mL in acetonitrile:water (6:4 by volume). Reactions were initiated by mixing equal volumes of the test solution with an approximately 12 mg/mL solution of benzoyl peroxide (BPO) in acetonitrile:water (4:1 by volume). Therefore, the reaction solution contained approximately 0.125 mg/mL of the test compound and the BPO was at a 50-fold excess by weight (i.e. at the same ratio as a product containing 0.1% tazarotene and 5% BPO). Aliquots of the reaction solutions were stored at various temperatures protected from light.
Reactions were quenched by diluting 30 μL of the reaction solution to 50 mL with a diluent (acetonitrile:water in a ratio of 1:1 by volume) and storing the sample at 10° C. in the LC/MS sample tray or at 5° C. for storage. Duplicate samples were prepared at each time point (three at the start of the reaction) and the results were averaged together to generate a single value.
Samples were analyzed on a Waters Acquity UPLC with a Waters Xevo TQMS using an ESI source in the positive mode controlled by MassLynx V4.1 software. […]

[4] = in vitro; settings: human, human skin microsomes, pH 7.4
Experimental: as §2
(§3) Five time points were chosen, but because of the limitation of human skin microsome supply, each one was carried out in duplicate. Skin microsomal reactions were carried out as described above for hepatic microsomal reactions with the following two exceptions. Firstly, the total reaction volume was 0.1 mL. Secondly, incubations were terminated with 0.1 mL acetonitrile.

[5] = Metabolism in the presence of human skin microsomes; settings: for Half-life / k constant: HSkM
Experimental: as §2, §3

[6] = tested on: SkinEthic RHE cultures; test: qRT-PCR of K10, K19 and filaggrin expression in SkinEthic RHE cultures; type: cell-based, human; settings: 6 μl test article, 72 hours
Experimental: (§1) SkinEthic RHE cultures were transferred into 6-well plates containing 1.0 mL/well growth media. The cultures were equilibrated at 37° C. and the media was changed daily. The cultures were subsequently placed in 60 mm petri dishes containing 3.5 mL growth media. 6 μl aliquots of the Test Articles shown in Table 3 were applied to duplicate cultures. The cultures were incubated at 37° C. for 72 hours. At the end of the incubation period, the growth media was collected and stored at −20° C. The tissues were cut in half and one half was placed in 10% NBF for histology, while the other half was placed in RNAlater™ solution (Ambion). The following analyses were performed: a) IL-1α and IL-8 activity assay; b) Hand E staining; c) Immunohistochemistry for K10, K19 and filaggrin; and d) qRT-PCR to quantitate K10, K19 and filaggrin expression.

[7] = tested on: SkinEthic RHE cultures; test: H and E staining and immunohistochemistry for K10, K19 and filaggrin in SkinEthic RHE cultures; type: cell-based, human; settings: 6 μl test article, 72 hours
Experimental: as §1

[8] = read-out: K4 Fold Change vs Untreated/OD controls (upregulation)
[9] = read-out: K13 Fold Change vs Untreated/OD controls (upregulation)
[10] = read-out: K19 Fold Change vs Untreated/OD controls (upregulation)

| Compound | half-life at 1 µM ([1]; Complete) [min] | half-life at 1 µM ([1]; Without NADPH) [min] | half-life at 10 µM ([1]; Complete) [min] | half-life at 10 µM ([1]; Without NADPH) [min] | fold induction at 2830 µM [2, 8] | fold induction at 2830 µM [2, 9] | fold induction at 2830 µM [2, 10] | further results |
| --- | --- | --- | --- | --- | --- | --- | --- | --- |
| CCOC(=O)c1ccc(C#Cc2ccc3c(c2)C(C)(C)CCS3)nc1 [Tazarotene, ethyl 6-[2-(4,4-dimethylthiochroman-6-yl)-ethynyl nicotinate] | 7.88 | 7.71 | 8.38 | 7.58 | 103 to 180 | 12 | 33 to 43 | – |
| CCOC(=O)c1ccc(C#Cc2ccc3c(c2)C(C)(C)CC(OC(=O)c2ccccc2)S3)nc1 (stereo not shown) [Compound 4, 6-(2-(2-benzoyloxy-4,4-dimethylthiochroman-6-yl)ethynyl)nicotinic acid, ethyl ester] | 7.76 | 7.19 | 71.4 | 47.5 | 29 | 7 | 8 | less reactive with BPO than tazarotene and hydroxy tazarotenic acid [3]: ~25 times; half-life at 10 µM [4]: 408 min; rate of metabolism by human skin microsomes relative to human liver microsomes [5]: slower rate; Half-life ([5]; 1 μM, Complete): 495 min; k constant ([5]; 1 μM, Complete): −0.0014; Half-life ([5]; 1 μM, Without NADPH): 217 min; k constant ([5]; 1 μM, Without NADPH): −0.0032; k constant ([5]; 10 μM, Complete): −0.0017; Half-life ([5]; 10 μM, without NADPH): 462 min; k constant ([5]; 10 μM, without NADPH): −0.0015; metabolized ([5]; after 150 min, 2 mg/ml human skin microsomes): 20%; down regulation of K10 gene expression compared to untreated and vehicle controls [6]: uninterpretable; down regulation of filaggrin gene expression compared to untreated and vehicle controls [6]: equivocal; filaggrin by immunohistochemistry [7]: down regulated |
